Values of other authors in US20080138404A1, “EXTENDED RELEASE FORMULATIONS OF CARVEDILOL” (BIOVAIL LABORATORIES INTERNATIONAL S.R.L., priority 2006, published 2008).
Values belong to the molecule of their own block, whether it stands above or below them.

What was measured:
[1] = man
[2] = not given; remark: listed apart in the source
[3] = test system: plasma protein, primarily albumin; conditions: following oral administration in healthy subjects

SMILES: COc1ccccc1OCCNCC(O)COc1cccc2[nH]c3ccccc3c12 (racemic) [Carvedilol]
colonic absorption relative to oral administration ([1]; 25 mg carvedilol gelatin suspension): about 7%
relative absorption in the ileum in comparison with oral administration [1]: 28%
relative absorption in the jejunum in comparison with oral administration [1]: 56%
solubility (above a pH of 9.0): < 1 µg/mL
saturation solubility (pH 7, room temperature): about 23 μg/ml
immediate release dose recovered as unchanged drug in urine ([2]; in vivo): less than 2%
terminal (elimination) half-life ([2]; oral, immediate release): 7 to 10 h
bound to plasma protein [3]: more than 98%

higher plasma concentration in poor metabolisers compared to extensive metabolisers ([2]; in vivo): 2-3 fold
plasma levels of R(+) relative to S(−) ([2]; in vivo, po): 2-3 times
SMILES: COc1ccccc1OCCNC[C@@H](O)COc1cccc2[nH]c3ccccc3c12 [R(+) Carvedilol]

increase of plasma levels in poor metabolisers ([2]; in vivo): 20-25%
SMILES: COc1ccccc1OCCNC[C@H](O)COc1cccc2[nH]c3ccccc3c12 [S(−) Carvedilol]
